Measurements: PubChem BioAssay (NCI)
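GI50 = concentration required for 50% inhibition of growth. TGI marks complete inhibition of growth.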

Tests used:
Experiment in all cases: NCI-60 cell line screen, 384-well format
[1] = test system: BT-549 breast
[2] = test system: CCRF-CEM leukemia
[3] = test system: SN12C renal
[4] = test system: NCI-H460 NSCLC
[5] = test system: 786-0 renal
[6] = test system: NCI/ADR-RES ovarian
[7] = test system: OVCAR-4 ovarian
[8] = test system: CAKI-1 renal
[9] = test system: MDA-MB-231 breast
[10] = test system: HT29 colon
[11] = test system: UACC-62 melanoma
[12] = test system: HCC-2998 colon
[13] = test system: A549 NSCLC
[14] = test system: OVCAR-8 ovarian
[15] = test system: NCI-H23 lung
[16] = test system: U251 glioblastoma
[17] = test system: RXF 393 renal
[18] = test system: TK-10 renal
[19] = test system: T-47D breast
[20] = test system: HL-60(TB) leukemia
[21] = test system: SK-OV-3 ovarian
[22] = test system: IGROV1 ovarian
[23] = test system: SF-539 CNS
[24] = test system: A498 renal
[25] = test system: SNB-19 CNS
[26] = test system: MDA-MB-468 breast
[27] = test system: SK-MEL-28 melanoma
[28] = test system: HOP-92 NSCLC
[29] = test system: OVCAR-3 ovarian
[30] = test system: HOP-62 NSCLC
[31] = test system: SR leukemia
[32] = test system: SK-MEL-5 melanoma
[33] = test system: MALME-3M melanoma
[34] = test system: SK-MEL-2 melanoma
[35] = test system: PC-3 prostate
[36] = test system: SF-268 CNS
[37] = test system: MDA-MB-435 melanoma
[38] = test system: MOLT-4 leukemia
[39] = test system: SF-295 CNS
[40] = test system: OVCAR-5 ovarian
[41] = test system: DU-145 prostate
[42] = test system: COLO 205 colon
[43] = test system: NCI-H322M lung
[44] = test system: MCF7 breast
[45] = test system: EKVX NSCLC
[46] = test system: NCI-H226 lung
[47] = test system: RPMI-8226 leukemia
[48] = test system: HS 578T breast
[49] = test system: M14 melanoma
[50] = test system: SW-620 colon
[51] = test system: ACHN renal
[52] = test system: UACC-257 melanoma
[53] = test system: KM12 colon
[54] = test system: NCI-H522 lung
[55] = test system: HCT-15 colon

**Q.** `C[C@]1(c2nc3c(C(N)=O)cccc3[nH]2)CCCN1` was tested. Which GI50 [1] did it give?
**A.** > 100 µM

**Q.** What about the TGI [1] of the same compound?
**A.** > 100 µM

**Q.** What about the GI50 [2] of the same compound?
**A.** > 100 µM

**Q.** And the TGI [2]?
**A.** > 100 µM

**Q.** What about the GI50 [3] of the same compound?
**A.** 85.2 µM

**Q.** What about the TGI [3] of the same compound?
**A.** > 100 µM

**Q.** And the GI50 [4]?
**A.** 28.7 µM

**Q.** What about the TGI [4] of the same compound?
**A.** > 100 µM

**Q.** And the GI50 [5]?
**A.** > 100 µM

**Q.** And the TGI [5]?
**A.** > 100 µM

**Q.** What about the GI50 [6] of the same compound?
**A.** > 100 µM

**Q.** What about the TGI [6] of the same compound?
**A.** > 100 µM

**Q.** What about the GI50 [7] of the same compound?
**A.** > 100 µM

**Q.** And the TGI [7]?
**A.** > 100 µM

**Q.** What about the GI50 [8] of the same compound?
**A.** > 100 µM

**Q.** And the TGI [8]?
**A.** > 100 µM

**Q.** What about the GI50 [9] of the same compound?
**A.** > 100 µM

**Q.** What about the TGI [9] of the same compound?
**A.** > 100 µM

**Q.** And the GI50 [10]?
**A.** > 100 µM

**Q.** And the TGI [10]?
**A.** > 100 µM

**Q.** And the GI50 [11]?
**A.** 95.6 µM

**Q.** And the TGI [11]?
**A.** > 100 µM

**Q.** What about the GI50 [12] of the same compound?
**A.** 26.6 µM

**Q.** What about the TGI [12] of the same compound?
**A.** > 100 µM

**Q.** What about the GI50 [13] of the same compound?
**A.** > 100 µM

**Q.** And the TGI [13]?
**A.** > 100 µM

**Q.** And the GI50 [14]?
**A.** > 100 µM

**Q.** What about the TGI [14] of the same compound?
**A.** > 100 µM

**Q.** And the GI50 [15]?
**A.** 78.7 µM

**Q.** And the TGI [15]?
**A.** > 100 µM

**Q.** And the GI50 [16]?
**A.** > 100 µM

**Q.** What about the TGI [16] of the same compound?
**A.** > 100 µM

**Q.** And the GI50 [17]?
**A.** > 100 µM

**Q.** And the TGI [17]?
**A.** > 100 µM

**Q.** And the GI50 [18]?
**A.** > 100 µM

**Q.** What about the TGI [18] of the same compound?
**A.** > 100 µM

**Q.** And the GI50 [19]?
**A.** > 100 µM

**Q.** And the TGI [19]?
**A.** > 100 µM

**Q.** What about the GI50 [20] of the same compound?
**A.** > 100 µM

**Q.** And the TGI [20]?
**A.** > 100 µM

**Q.** And the GI50 [21]?
**A.** > 100 µM

**Q.** And the TGI [21]?
**A.** > 100 µM

**Q.** And the GI50 [22]?
**A.** > 100 µM

**Q.** And the TGI [22]?
**A.** > 100 µM

**Q.** What about the GI50 [23] of the same compound?
**A.** > 100 µM

**Q.** And the TGI [23]?
**A.** > 100 µM

**Q.** And the GI50 [24]?
**A.** > 100 µM

**Q.** And the TGI [24]?
**A.** > 100 µM

**Q.** What about the GI50 [25] of the same compound?
**A.** > 100 µM

**Q.** What about the TGI [25] of the same compound?
**A.** > 100 µM

**Q.** And the GI50 [26]?
**A.** 16.2 µM

**Q.** And the TGI [26]?
**A.** > 100 µM

**Q.** And the GI50 [27]?
**A.** > 100 µM

**Q.** What about the TGI [27] of the same compound?
**A.** > 100 µM

**Q.** And the GI50 [28]?
**A.** > 100 µM

**Q.** What about the TGI [28] of the same compound?
**A.** > 100 µM

**Q.** What about the GI50 [29] of the same compound?
**A.** > 100 µM

**Q.** And the TGI [29]?
**A.** > 100 µM

**Q.** What about the GI50 [30] of the same compound?
**A.** 40.7 µM

**Q.** What about the TGI [30] of the same compound?
**A.** > 100 µM

**Q.** What about the GI50 [31] of the same compound?
**A.** 14.5 µM

**Q.** And the TGI [31]?
**A.** 28.3 µM

**Q.** And the GI50 [32]?
**A.** > 100 µM

**Q.** What about the TGI [32] of the same compound?
**A.** > 100 µM

**Q.** And the GI50 [33]?
**A.** > 100 µM

**Q.** And the TGI [33]?
**A.** > 100 µM

**Q.** What about the GI50 [34] of the same compound?
**A.** > 100 µM

**Q.** And the TGI [34]?
**A.** > 100 µM

**Q.** And the GI50 [35]?
**A.** > 100 µM

**Q.** And the TGI [35]?
**A.** > 100 µM

**Q.** And the GI50 [36]?
**A.** > 100 µM

**Q.** And the TGI [36]?
**A.** > 100 µM

**Q.** What about the GI50 [37] of the same compound?
**A.** > 100 µM

**Q.** What about the TGI [37] of the same compound?
**A.** > 100 µM

**Q.** What about the GI50 [38] of the same compound?
**A.** 29.6 µM

**Q.** And the TGI [38]?
**A.** > 100 µM

**Q.** And the GI50 [39]?
**A.** 38.9 µM

**Q.** What about the TGI [39] of the same compound?
**A.** > 100 µM

**Q.** And the GI50 [40]?
**A.** 84.4 µM

**Q.** And the TGI [40]?
**A.** > 100 µM

**Q.** And the GI50 [41]?
**A.** > 100 µM

**Q.** And the TGI [41]?
**A.** > 100 µM

**Q.** And the GI50 [42]?
**A.** > 100 µM

**Q.** And the TGI [42]?
**A.** > 100 µM

**Q.** What about the GI50 [43] of the same compound?
**A.** > 100 µM

**Q.** And the TGI [43]?
**A.** > 100 µM

**Q.** And the GI50 [44]?
**A.** 72.9 µM

**Q.** What about the TGI [44] of the same compound?
**A.** > 100 µM

**Q.** And the GI50 [45]?
**A.** > 100 µM

**Q.** And the TGI [45]?
**A.** > 100 µM

**Q.** What about the GI50 [46] of the same compound?
**A.** 90.3 µM

**Q.** What about the TGI [46] of the same compound?
**A.** > 100 µM

**Q.** And the GI50 [47]?
**A.** > 100 µM

**Q.** What about the TGI [47] of the same compound?
**A.** > 100 µM

**Q.** And the GI50 [48]?
**A.** > 100 µM

**Q.** And the TGI [48]?
**A.** > 100 µM

**Q.** And the GI50 [49]?
**A.** > 100 µM

**Q.** What about the TGI [49] of the same compound?
**A.** > 100 µM

**Q.** And the GI50 [50]?
**A.** > 100 µM

**Q.** What about the TGI [50] of the same compound?
**A.** > 100 µM

**Q.** And the GI50 [51]?
**A.** > 100 µM

**Q.** What about the TGI [51] of the same compound?
**A.** > 100 µM

**Q.** What about the GI50 [52] of the same compound?
**A.** > 100 µM

**Q.** And the TGI [52]?
**A.** > 100 µM

**Q.** And the GI50 [53]?
**A.** > 100 µM

**Q.** What about the TGI [53] of the same compound?
**A.** > 100 µM

**Q.** And the GI50 [54]?
**A.** > 100 µM

**Q.** What about the TGI [54] of the same compound?
**A.** > 100 µM

**Q.** And the GI50 [55]?
**A.** > 100 µM

**Q.** And the TGI [55]?
**A.** > 100 µM
